Assays:
[1] = test system: smallflower umbrella sedge; test: Test C flooded paddy test; format: in vivo, Cyperus difformis; conditions: for Plant response rating, Sedge, Umbrella: 500 g ai/ha, visual rating after 12 to 14 days
[2] = test system: giant foxtail; test: Test B pre-/postemergence herbicide test; format: in vivo, Setaria faberi
Method in brief: (§1)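 Evaluation is visual, comparing treated with control plants on a scale where 0 means no effect and 100 means full control. Treatments were preemergence, or postemergence on seedlings 2–18 cm tall, and held 13–15 days in the greenhouse.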

[3] = test system: wild oat; test: Test B postemergence herbicide test; format: in vivo, Avena fatua
Method in brief: (§2)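 After treating 2-leaf paddy plants or 2–18 cm postemergence plants (1 to 4 leaves) with formulated chemical, researchers kept them in a greenhouse for 13–15 days. Effects were judged visually versus controls: 0 indicates none, 100 total control.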

[4] = test system: small flower umbrella sedge; test: Test B flooded paddy test; format: in vivo, Cyperus difformis; conditions: 1000 g ai/ha, scale 0 to 100 (0 no effect, 100 complete control)
Method in brief: as §2

[5] = test system: pigweed; test: Test B pre-/postemergence herbicide test; format: in vivo, Amaranthus retroflexus
Method in brief: as §1

[6] = test system: barnyardgrass; test: Test B pre-/postemergence herbicide test; format: in vivo, Echinochloa crus-galli
Method in brief: (§3)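 Flooded paddy rice and barnyardgrass were treated at the 2-leaf stage; upland plantings received compound either on sown seed or on 1- to 4-leaf seedlings. All were kept 13–15 days in a greenhouse and scored visually, 0–100, relative to untreated plants.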

[7] = test system: Surinam grass; test: Test B pre-/postemergence herbicide test; format: in vivo, Urochloa decumbens
Method in brief: as §1

[8] = test system: blackgrass; test: Test B postemergence herbicide test; format: in vivo, Alopecurus myosuroides
Method in brief: as §2

[9] = test system: rice; test: Test B flooded paddy test; format: in vivo, Oryza sativa; conditions: 1000 g ai/ha, scale 0 to 100 (0 no effect, 100 complete control)
Method in brief: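 Each value is a visual 0–100 response rating taken against controls 13 to 15 days after treatment in the greenhouse. Plants received formulated chemical postemergence at the 1- to 4-leaf stage or, in flooded paddy, at the 2-leaf stage.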

[10] = test system: barnyardgrass; test: Test B flooded paddy test; format: in vivo, Echinochloa crus-galli; conditions: 1000 g ai/ha, scale 0 to 100 (0 no effect, 100 complete control)
Method in brief: as §2

[11] = test system: large crabgrass; test: Test B pre-/postemergence herbicide test; format: in vivo, Digitaria sanguinalis
Method in brief: as §1

[12] = test system: corn; test: Test B pre-/postemergence herbicide test; format: in vivo, Zea mays
Method in brief: as §1

[13] = test system: velvetleaf; test: Test B pre-/postemergence herbicide test; format: in vivo, Abutilon theophrasti
Method in brief: as §1

[14] = test system: ducksalad; test: Test B flooded paddy test; format: in vivo, Heteranthera limosa; conditions: 1000 g ai/ha, scale 0 to 100 (0 no effect, 100 complete control)
Method in brief: as §2

[15] = test system: rice; test: Test B pre-/postemergence herbicide test; format: in vivo, Oryza sativa; conditions: preemergence
Method in brief: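 Plants compared with untreated controls 13–15 days post-treatment and given a visual 0–100 injury score. Applications: preemergence to seeds; postemergence at 1- to 4-leaf (2–18 cm); paddy species flooded, 2-leaf stage. Vehicle non-phytotoxic, surfactant included.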

[16] = test system: wheat; test: Test B postemergence herbicide test; format: in vivo, Triticum aestivum; design: key to Wheat plant response rating: 0 = no effect, 100 = complete control
Method in brief: as §2

[17] = test system: rice; test: Test C flooded paddy test; format: in vivo, Oryza sativa; conditions: for Plant response rating, Rice: 500 g ai/ha, visual rating after 12 to 14 days
Method in brief: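 Postemergence sprays applied to plants 2 to 18 cm tall (1- to 4-leaf stage); paddy species grown to 2-leaf stage under flooding. After 12 to 14 days in greenhouse, visual rating versus untreated controls on 0–100 scale (0 no effect, 100 complete control).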

[18] = test system: ducksalad; test: Test C flooded paddy test; format: in vivo, Heteranthera limosa; conditions: for Plant response rating, Ducksalad: 500 g ai/ha, visual rating after 12 to 14 days
[19] = test system: lambsquarters; test: Test B pre-/postemergence herbicide test; format: in vivo, Chenopodium album
Method in brief: as §1

[20] = test system: cocklebur; test: Test B pre-/postemergence herbicide test; format: in vivo, Xanthium strumarium
Method in brief: as §3

[21] = test system: barnyardgrass; test: Test C flooded paddy test; format: in vivo, Echinochloa crus-galli; conditions: for Plant response rating, Barnyardgrass: 500 g ai/ha, visual rating after 12 to 14 days
Method in brief: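 Weeds and wheat were sprayed after emergence, at a height of 2 to 18 cm (1–4 leaves), and paddy barnyardgrass was flooded and treated at two leaves. Assessment took place 12–14 days later in the greenhouse on a 0-to-100 visual control scale. A dash means no result was obtained.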

[22] = test system: morningglory; test: Test B pre-/postemergence herbicide test; format: in vivo, Ipomoea coccinea
Method in brief: as §3

[23] = 125 g ai/ha, scale 0 to 100 (0 no effect, 100 complete control)
[24] = 250 g ai/ha, scale of 0 to 100, 0 is no effect, 100 is complete control
[25] = scale 0 to 100 (0 no effect, 100 complete control)
[26] = 125 g ai/ha, 0 is no effect, 100 is complete control, preemergence
[27] = 125 g ai/ha, visual rating, scale 0 (no effect) to 100 (complete control), postemergence
[28] = 500 g ai/ha, visual rating, 0 = no effect, 100 = complete control, preemergence
[29] = postemergence, 500 g ai/ha, scale 0 to 100, 0 is no effect, 100 is complete control
[30] = 125 g ai/ha; visual rating, scale 0 (no effect) to 100 (complete control); postemergence
[31] = postemergence, 500 g ai/ha; scale 0 to 100, 0 is no effect, 100 is complete control
[32] = 125 g ai/ha; 0 is no effect, 100 is complete control; preemergence
[33] = 500 g ai/ha; visual rating, 0 = no effect, 100 = complete control; preemergence
[34] = 62 g ai/ha, scale 0 to 100 (0 no effect, 100 complete control)
[35] = 125 g ai/ha, scale of 0 to 100, 0 is no effect, 100 is complete control
[36] = Postemergence, 500 g ai/ha, visual rating after 13 to 15 days, scale 0 (no effect) to 100 (complete control)
[37] = Preemergence, 500 g ai/ha, scale 0 to 100
[38] = postemergence, 125 g ai/ha, visual rating, scale 0 (no effect) to 100 (complete control)
[39] = preemergence, 125 g ai/ha, 0 to 100 scale, 0 is no effect, 100 is complete control
[40] = Postemergence, 500 g ai/ha; visual rating after 13 to 15 days, scale 0 (no effect) to 100 (complete control)
[41] = postemergence, 125 g ai/ha; visual rating, scale 0 (no effect) to 100 (complete control)
[42] = preemergence, 125 g ai/ha; 0 to 100 scale, 0 is no effect, 100 is complete control

CCN1N=C(C(C)(C)C)CC1C(=O)Nc1cc(C(=O)N2CCCCC2)ccc1F (racemic) [Compound 331]
Sedge, Umbrella plant response rating ([1]; 62 g ai/ha, scale 0 to 100): 0 | Sedge, Umbrella plant response rating [1, 23]: 20 | Sedge, Umbrella plant response rating [1, 24]: 25 | Plant response rating, Sedge, Umbrella [1, 25]: 65 | Plant response rating (0 to 100 scale), Foxtail, Giant [2, 26]: 20 | Foxtail, Giant plant response rating [2, 27]: 0 | Plant response rating, Foxtail, Giant [2, 28]: 80 | Foxtail, Giant plant response rating [2, 29]: 30 | Oat, Wild plant response rating [3, 30]: 10 | Oat, Wild plant response rating [3, 31]: 30 | Sedge, Umbrella plant response rating [4]: 90 | Plant response rating (0 to 100 scale), Pigweed [5, 32]: 40 | Pigweed plant response rating [5, 30]: 10 | Plant response rating, Pigweed [5, 33]: 50 | Pigweed plant response rating [5, 31]: 50 | Plant response rating (0 to 100 scale), Barnyardgrass [6, 26]: 60 | Barnyardgrass plant response rating [6, 27]: 10 | Plant response rating, Barnyardgrass [6, 28]: 70 | Barnyardgrass plant response rating [6, 29]: 20 | Plant response rating (0 to 100 scale), Surinam Grass [7, 32]: 40 | Surinam Grass plant response rating [7, 30]: 10 | Plant response rating, Surinam Grass [7, 33]: 60 | Surinam Grass plant response rating [7, 31]: 20 | Blackgrass plant response rating [8, 30]: 10 | Blackgrass plant response rating [8, 31]: 20 | Rice plant response rating [9]: 60 | Barnyardgrass plant response rating [10]: 80 | Plant response rating (0 to 100 scale), Crabgrass, Large [11, 26]: 60 | Crabgrass, Large plant response rating [11, 27]: 10 | Plant response rating, Crabgrass, Large [11, 28]: 80 | Crabgrass, Large plant response rating [11, 29]: 10 | Plant response rating (0 to 100 scale), Corn [12, 26]: 20 | Corn plant response rating [12, 27]: 0 | Plant response rating, Corn [12, 28]: 40 | Corn plant response rating [12, 29]: 0 | Plant response rating (0 to 100 scale), Velvetleaf [13, 32]: 20 | Velvetleaf plant response rating [13, 30]: 10 | Plant response rating, Velvetleaf [13, 33]: 80 | Velvetleaf plant response rating [13, 31]: 20 | Ducksalad plant response rating [14]: 90 | Plant response rating (0 to 100 scale), Rice ([15]; 125 g ai/ha, 0 is no effect, 100 is complete control): 30 | Plant response rating, Rice ([15]; 500 g ai/ha, visual rating, 0 = no effect, 100 = complete control): 40 | Wheat plant response rating [16, 30]: 20 | Wheat plant response rating [16, 31]: 20 | Rice plant response rating ([17]; 62 g ai/ha, scale 0 to 100): 0 | Rice plant response rating [17, 23]: 15 | Rice plant response rating [17, 24]: 50 | Plant response rating, Rice [17, 25]: 65 | Ducksalad plant response rating ([18]; 62 g ai/ha, scale 0 to 100): 0 | Ducksalad plant response rating [18, 23]: 50 | Ducksalad plant response rating [18, 24]: 65 | Plant response rating, Ducksalad [18, 25]: 85 | Lambsquarters plant response rating [19, 30]: 60 | Plant response rating, Lambsquarters [19, 33]: 100 | Lambsquarters plant response rating [19, 31]: 70 | Plant response rating (0 to 100 scale), Cocklebur [20, 26]: 0 | Cocklebur plant response rating [20, 27]: 10 | Plant response rating, Cocklebur [20, 28]: 0 | Cocklebur plant response rating [20, 29]: 30 | Barnyardgrass plant response rating [21, 34]: 0 | Barnyardgrass plant response rating [21, 23]: 10 | Barnyardgrass plant response rating [21, 24]: 40 | Plant response rating, Barnyardgrass [21, 25]: 65 | Plant response rating (0 to 100 scale), Morningglory [22, 32]: 0 | Morningglory plant response rating [22, 30]: 0 | Plant response rating, Morningglory [22, 33]: 0 | Morningglory plant response rating [22, 31]: 10

CCn1nc(C(C)(C)C)cc1C(=O)Nc1cc(C(=O)OC)c(OC)cc1F [Compound 75]
Sedge, Umbrella plant response rating [1, 34]: 70 | Sedge, Umbrella plant response rating [1, 35]: 75 | Sedge, Umbrella plant response rating [1, 24]: 80 | Plant response rating, Sedge, Umbrella [1, 25]: 85 | Plant response rating, Foxtail, Giant [2, 36]: 20 | Foxtail, Giant plant response rating [2, 37]: 90 | Foxtail, Giant plant response rating [2, 38]: 20 | Plant response rating, Foxtail, Giant [2, 39]: 30 | Plant response rating, Oat, Wild [3, 40]: 40 | Oat, Wild plant response rating [3, 41]: 10 | Sedge, Umbrella plant response rating ([4]; visual rating, 13 to 15 days): 70 | Plant response rating, Pigweed [5, 40]: 70 | Pigweed plant response rating [5, 41]: 50 | Plant response rating, Pigweed [5, 42]: 50 | Plant response rating, Barnyardgrass [6, 36]: 20 | Barnyardgrass plant response rating [6, 37]: 90 | Barnyardgrass plant response rating [6, 38]: 10 | Plant response rating, Barnyardgrass [6, 39]: 50 | Plant response rating, Surinam Grass [7, 40]: 20 | Surinam Grass plant response rating [7, 41]: 10 | Plant response rating, Surinam Grass [7, 42]: 30 | Plant response rating, Blackgrass [8, 40]: 30 | Blackgrass plant response rating [8, 41]: 10 | Rice plant response rating ([9]; visual rating, 13 to 15 days): 90 | Barnyardgrass plant response rating ([10]; visual rating, 13 to 15 days): 80 | Plant response rating, Crabgrass, Large [11, 36]: 10 | Crabgrass, Large plant response rating [11, 37]: 70 | Crabgrass, Large plant response rating [11, 38]: 10 | Plant response rating, Crabgrass, Large [11, 39]: 10 | Plant response rating, Corn [12, 36]: 20 | Corn plant response rating [12, 37]: 30 | Corn plant response rating [12, 38]: 10 | Plant response rating, Corn [12, 39]: 0 | Plant response rating, Velvetleaf [13, 40]: 20 | Velvetleaf plant response rating [13, 41]: 20 | Plant response rating, Velvetleaf [13, 42]: 20 | Ducksalad plant response rating ([14]; visual rating, 13 to 15 days): 90 | Plant response rating, Rice ([15]; 125 g ai/ha, 0 to 100 scale, 0 is no effect, 100 is complete control): 40 | Plant response rating, Wheat [16, 40]: 20 | Wheat plant response rating [16, 41]: 10 | Rice plant response rating [17, 34]: 0 | Rice plant response rating [17, 35]: 25 | Rice plant response rating [17, 24]: 55 | Plant response rating, Rice [17, 25]: 65 | Ducksalad plant response rating [18, 34]: 0 | Ducksalad plant response rating [18, 35]: 30 | Ducksalad plant response rating [18, 24]: 65 | Plant response rating, Ducksalad [18, 25]: 70 | Plant response rating, Lambsquarters [19, 40]: 40 | Lambsquarters plant response rating [19, 41]: 40 | Plant response rating, Lambsquarters [19, 42]: 20 | Plant response rating, Cocklebur [20, 36]: 30 | Cocklebur plant response rating [20, 37]: 10 | Cocklebur plant response rating [20, 38]: 10 | Plant response rating, Cocklebur [20, 39]: 0 | Barnyardgrass plant response rating [21, 34]: 0 | Barnyardgrass plant response rating [21, 35]: 25 | Barnyardgrass plant response rating [21, 24]: 65 | Plant response rating, Barnyardgrass [21, 25]: 70 | Plant response rating, Morningglory [22, 40]: 50 | Morningglory plant response rating [22, 41]: 20 | Plant response rating, Morningglory [22, 42]: 0
